≈ marks a conversion by molar mass, not a printed value. Where two headings read alike, the source gives them in different places.
What was measured:
[1] = HTChem stab assay (chemical stability in buffer pH2, pH4 and pH7 vs DMSO reference); type: physicochemical
Protocol: HTChem stab assay was used to assess the chemical stability of the compounds. 72 h stirring at rt in a buffer pH2, pH4 and pH7 vs a reference DMSO solution. HTChem stab assay is based on the handbook of Pharmaceutical Stress Testing, Predicting Drug Degradation, second edition, authors Baertschi, Alsante, Reed ISBN 978-143980179-6.
Compounds were plated (1 μl 10 mM DMSO stock in 96 well plate (DMSO control+3 pH conditions), one plate per condition).
200 μL of respectively DMSO, Buffer/DMSO mix pH2, Buffer/DMSO mix pH4 and Buffer/DMSO mix pH7 was added.
After 72 h shaking (300 rpm) at room temperature the samples were analysed by LC/UV/MS. Chromatograms of samples (stability conditions) were compared with the chromatograms of control sample (DMSO). Extra peaks were flagged and identified by mass spectrometry. Sample purity (reference included) were reported.
• pH3 buffer: For 11; weigh 4.14 g NaH2PO4·H2O, add 600 ml H2O, add H3PO4 to pH3, add H2O to 1000 ml. Filter over 0.2 μm and store at 4° C. Expires after 30 days. • pH6 buffer: For 1 l; weigh 4.14 g NaH2PO4·H2O, add 600 ml H2O, add 1N NaOH to pH6, add H2O to 1000 ml. Filter over […] and store at 4° C. Expires after 30 days.
• pH2 Buffer/DMSO (StabSolvent): mix 2 parts of HCl 0.1N with 1 part of DMSO • pH4 Buffer/DMSO (StabSolvent): mix 2 parts of buffer pH3 with 1 part of DMSO • pH7 Buffer/DMSO (StabSolvent): mix 2 parts of buffer pH6 with 1 part of DMSO measure pH prior to use.
Instrument: Acquity UPLC; Column: Acquity HSS T3, 50 mm length×2.1 mm i.d., 1.8 μm particle size. Detectors: PDA (250-350 nm) and SQD2 (90-1500m/z). Mobile phase A: 0.1% Formic acid in water; Mobile phase B: 0.1% Formic acid in Acetonitrile.
Injection volume: 5 μL, flow rate 0.6 mL/min.
Data processing including peak integration and identification was done with Waters OpenLynx software.

[2] = Metabolic stability in liver microsomes (intrinsic clearance); type: in vitro ADME
Protocol: The test compound was incubated under the generic condition (0.5 mg/ml microsomal protein, 1 mM NADPH, 1 mM MgCl2, and 0.1 M phosphate buffer, pH 7.4, 37° C.) at a defined substrate concentration (typically 1 μM) in liver microsomes of selected species across a time course (typically 0, 5, 10, 20, 40 and 60 minutes) at Cyprotex (Cheshire, UK). The liver microsomes, buffer and test compound will be pre-incubated for 5 minutes. The addition of the co-factor NADPH will initiate the reaction and the reaction was terminated by addition of acetonitrile. The samples were centrifuged prior to analysis by LC-MS/MS analysis. The relative amount of parent compound remaining in the active incubations vs. the control incubations (t=0 mins) for each compound was measured by peak area comparison. The in vitro metabolic half-life (t1/2) was calculated using the slope of the log-linear regression from the percentage parent compound remaining versus time relationship (κ), The in vitro intrinsic clearance (Cl^int) (μl/min/mg microsomal protein) was calculated using the in vitro metabolic half-life, incubation volume and the weight of microsomal protein in the incubation.

[3] = tested on: Mycobacterium tuberculosis strain H37Rv; assay: Test 2: MIC determination against M. tuberculosis, resazurin fluorescence; type: cell-based; conditions: Test 2, M. tuberculosis H37Rv; for MIC90: read-out: Bacterial activity MIC90; for IC50: read-out: Bacterial activity pMIC50 (converted)
[4] = tested on: Salmonella typhimurium Ames II Mixed Strains (TA7001-TA7006) and TA98; assay: Genotoxicity assay (AmesIIb mutagenicity test); type: cell-based; also: key: an AmesIIb score of 1 shows no genotoxicity signals
From the text: The aim is to evaluate compounds (and/or their metabolites) for their ability to induce reverse mutations in a gene of histidine-requiring Salmonella typhimurium strains to produce histidine-independent strains of these bacteria, in the absence and in the presence of a mammalian metabolic activation system.
Point mutations were made in the histidine (His) operon in Salmonella typhimurium, rendering the bacteria incapable of producing histidine. These single base substitutions are positioned at strategic points within the His gene, resulting in his-organisms that cannot grow unless histidine is supplied. When a mutagenic event occurs, base substitutions within the His gene then cause the reversion of the his-Ames II™ strains to His.
A chemical's mutagenic potential is assessed by exposing these his-organisms to varying concentrations of chemical and selecting for the reversion event. Medium lacking histidine is used for this selection which allows only those cells that have undergone the his- to His reversion to survive and grow.
The assay may be performed using a kit and instructions from Xenometric. The two strains provided in the Xenometric kit are the Ames II™ Mixed Strains and TA98. The Ames II™ Mixed Strains contains an equimolar mixture of the Ames II™ TA7001-TA7006 strains. Individually, these strains are designed to revert by only one specific base-pair substitution out of six possible changes. Thus, when mixed, all six base substitution mutations can be represented in one culture. This kit also contains TA98 for the detection of frameshift mutations.

[5] = human, microsomes, pH 7.4, Metabolic Stability Half life (human, min.)
[6] = human, microsomes, pH 7.4, human liver microsomes, read-out: Metabolic Stability (liver microsome intrinsic clearance) Clearance (human, μl/min./mg protein)
[7] = mouse, microsomes, pH 7.4, Metabolic Stability Half life (mouse, min.)
[8] = mouse, microsomes, pH 7.4, mouse liver microsomes, read-out: Metabolic Stability (liver microsome intrinsic clearance) Clearance (mouse, μl/min./mg protein)
[9] = Mycobacterium tuberculosis, H37RV

SMILES	half-life at 1 µM [2, 7] [h]	microsomal CLint at 1 µM [2, 8] [µL/min/mg]	MIC90 [3, 9] [µM]	IC50 [3, 9] [pM]	GeneTox AmesIIb Score ([4]; Salmonella typhimurium)	further results
CCc1nc2cc(F)ccn2c1C(=O)NCc1ccc(-c2nc3n(n2)CCC(C(F)(F)F)C3)cc1 (racemic) [Compound 7ab]	–	–	–	–	–	Chemical stability data, Buffer pH2 ([1]; buffer pH2/DMSO, 72 h stirring at rt): 100%; Chemical stability data, Buffer pH4 ([1]; buffer pH4/DMSO, 72 h stirring at rt): 100%; Chemical stability data, Buffer pH7 ([1]; buffer pH7/DMSO, 72 h stirring at rt): 100%; Chemical stability data, Vehicle DMSO ([1]; reference DMSO solution, 72 h stirring at rt): 100%; Metabolic Stability (liver microsome intrinsic clearance) Clearance (mouse, μl/min./mg protein) ([2]; mouse liver microsomes): 20.5 μl/min./mg protein; Metabolic Stability Half life (mouse, min.) ([2]; mouse liver microsomes): 1.13 h; Bacterial activity pMIC50 [3]: 8.362; MIC90 [3]: 0.014 µM (≈ 0.00681 µg/mL)
CCc1nc2ncc(C)cn2c1C(=O)NCc1ccc(-c2nc3n(n2)CCC(C(F)(F)F)C3)cc1 (single isomer, unassigned) [Compound 1a]	> 3	< 7.7	0.009 (≈ 0.00435 µg/mL)	3130	–	Chemical stability data, Vehicle DMSO ([1]; 72 h, 50 µM): 100%; Chemical stability data, Buffer pH2 ([1]; 72 h, 50 µM, pH 2): 100%; Chemical stability data, Buffer pH4 ([1]; 72 h, 50 µM, pH 4): 100%; Chemical stability data, Buffer pH7 ([1]; 72 h, 50 µM, pH 7): 100%; half-life at 1 µM [2, 5]: > 3 h; microsomal CLint at 1 µM [2, 6]: < 7.7 µL/min/mg
O=C(NCc1ccc(-c2nc3n(n2)CCC(C(F)(F)F)C3)cc1)c1c(C(F)(F)F)nc2ncccn12 (single isomer, unassigned) [Compound 2a]	–	–	–	–	–	Metabolic Stability (liver microsome intrinsic clearance) Clearance (human, μl/min./mg protein) ([2]; human, microsomes): <7.7 μl/min./mg protein; Metabolic Stability Half life (human, min.) ([2]; human, microsomes): >3 h; Metabolic Stability (liver microsome intrinsic clearance) Clearance (mouse, μl/min./mg protein) ([2]; mouse, microsomes): 11.4 μl/min./mg protein; Metabolic Stability Half life (mouse, min.) ([2]; mouse, microsomes): 2.02 h; Bacterial activity pMIC50 [3]: 7.648; MIC90 [3]: 0.086 µM (≈ 0.0438 µg/mL); GeneTox AmesIIb Score [4]: 1
O=C(NCc1ccc(-c2nc3n(n2)CCC(C(F)(F)F)C3)cc1)c1c(C(F)(F)F)nc2ncccn12 (single isomer, unassigned) [Compound 2b]	–	–	–	–	–	Metabolic Stability (liver microsome intrinsic clearance) Clearance (human, μl/min./mg protein) ([2]; human, microsomes): <7.7 μl/min./mg protein; Metabolic Stability Half life (human, min.) ([2]; human, microsomes): >3 h; Metabolic Stability (liver microsome intrinsic clearance) Clearance (mouse, μl/min./mg protein) ([2]; mouse, microsomes): 12.3 μl/min./mg protein; Metabolic Stability Half life (mouse, min.) ([2]; mouse, microsomes): 1.87 h; Bacterial activity pMIC50 [3]: 7.502; MIC90 [3]: 0.098 µM (≈ 0.0499 µg/mL); GeneTox AmesIIb Score [4]: 1
CCc1nc2ncc(C)cn2c1C(=O)NCc1ccc(-c2cn3c(n2)CC(C(F)(F)F)CC3)cc1 (single isomer, unassigned) [Compound 3b]	–	–	–	–	–	Metabolic Stability (liver microsome intrinsic clearance) Clearance (human, μl/min./mg protein) ([2]; human, microsomes): 26.1 μl/min./mg protein; Metabolic Stability Half life (human, min.) ([2]; human, microsomes): 0.887 h; Metabolic Stability (liver microsome intrinsic clearance) Clearance (mouse, μl/min./mg protein) ([2]; mouse, microsomes): 23.8 μl/min./mg protein; Metabolic Stability Half life (mouse, min.) ([2]; mouse, microsomes): 0.972 h; Bacterial activity pMIC50 [3]: 8.483; MIC90 [3]: 0.010 µM (≈ 0.00483 µg/mL); GeneTox AmesIIb Score [4]: 1
CCc1nc2nc(C)ccn2c1C(=O)NCc1ccc(-c2nc3n(n2)CCC(C(F)(F)F)C3)cc1 (centres unmarked) [Compound 5b]	–	–	–	–	–	Metabolic Stability (liver microsome intrinsic clearance) Clearance (mouse, μl/min./mg protein) ([2]; mouse, microsomes): <7.7 μl/min./mg protein; Metabolic Stability Half life (mouse, min.) ([2]; mouse, microsomes): >3 h; Bacterial activity pMIC50 [3]: 7.873; MIC90 [3]: 0.044 µM (≈ 0.0213 µg/mL); GeneTox AmesIIb Score [4]: 1
CCc1nc2ncc(C)cn2c1C(=O)NCc1ccc(-c2nc3n(n2)CCC(C(F)(F)F)C3)c(C)n1 (centres unmarked) [Compound 37]	> 2.8	< 7.7	0.0035 (≈ 0.00174 µg/mL)	12600	1	–
CCc1nc2ncc(C)cn2c1C(=O)NCc1cc(C)c(-c2nc3n(n2)CCC(C(F)(F)F)C3)cn1 (centres unmarked) [Compound 38]	> 3	< 7.7	0.052 (≈ 0.0259 µg/mL)	17000	1	–
CCc1nc2ncc(C)cn2c1C(=O)NCc1ccc(-c2nc3n(n2)CCC(C(F)(F)F)C3)cn1 (centres unmarked) [Compound 39]	> 3	< 7.7	0.16 (≈ 0.0775 µg/mL)	49000	1	–
CCc1nc2ccc(F)cn2c1C(=O)NCc1ccc(-c2nc3n(n2)CC[C@H](C(F)(F)F)C3)cc1 [Compound 50]	1.97	11.7	0.11 (≈ 0.0535 µg/mL)	28200	1	–
[2H]C([2H])([2H])c1cnc2nc(CC)c(C(=O)NCc3ccc(-c4nc5n(n4)CC[C@H](C(F)(F)F)C5)cc3)n2c1 [Compound 51]	> 3	< 7.7	0.008 (≈ 0.00389 µg/mL)	3160	1	–
CCc1cnc2nc(CC)c(C(=O)NCc3ccc(-c4nc5n(n4)CC[C@@H](C(F)(F)F)C5)cc3)n2c1 [Compound 59]	0.39	59.4	0.061 (≈ 0.0303 µg/mL)	17800	1	half-life at 1 µM [2, 5]: 0.0667 h; microsomal CLint at 1 µM [2, 6]: 347 µL/min/mg
CCc1cnc2nc(CC)c(C(=O)NCc3ccc(-c4nc5n(n4)CC[C@H](C(F)(F)F)C5)cc3)n2c1 [Compound 62]	0.4	57.8	0.033 (≈ 0.0164 µg/mL)	11000	1	half-life at 1 µM [2, 5]: 0.0783 h; microsomal CLint at 1 µM [2, 6]: 294 µL/min/mg
CCc1nc2ncc(C)cn2c1C(=O)NCc1ccc(-c2cn3c(n2)CC(C)CC3)cc1 (centres unmarked) [Compound 89]	> 3	< 7.7	0.046 (≈ 0.0197 µg/mL)	14100	1	–
CCc1nc2nc(C)ccn2c1C(=O)NCc1ccc(-c2cn3c(n2)CC(C)CC3)cc1 (centres unmarked) [Compound 91]	> 3	< 7.7	0.48 (≈ 0.206 µg/mL)	191000	1	–
CCc1nc2ncc(C)cn2c1C(=O)NCc1ccc(-c2cc3n(n2)CCCC3)cc1 [Compound 95]	0.978	0.012	0.011 (≈ 0.00456 µg/mL)	3630	1	half-life at 1 µM [2, 5]: > 9.33 h; microsomal CLint at 1 µM [2, 6]: < 1.2 µL/min/mg
CCc1nc2ncc(C)cn2c1C(=O)NCc1ccc(-c2nc3n(n2)CCC(COC)C3)cc1 (centres unmarked) [Compound 102]	> 3	< 7.7	0.058 (≈ 0.0267 µg/mL)	25700	1	–
CCc1nc2ncc(C)cn2c1C(=O)NCc1ccc(-c2nc3n(n2)CCC(C(C)(F)F)C3)c(F)c1 (centres unmarked) [Compound 106]	1.92	12.1	0.03 (≈ 0.0149 µg/mL)	12000	1	–

— US20250034171A1, “IMIDAZOPYRIDINE AMIDES AND RELATED COMPOUNDS FOR USE IN THE TREATMENT OF BACTERIAL INFECTIONS” (priority 2021, published 2025)
